According to patent US5858684A, “Method of screening calcium receptor-active molecules” (priority 1995, dated 1999):
Entries after “also recorded” stand apart in the source; their conditions may differ. Like-named read-outs stand apart in the source and are kept apart here.

Columns and labels:
C-cell calcium receptor = molecular target: T1, C-cell calcium receptor (Rattus norvegicus, UniProt P48442); assay: increase in [Ca2+]i in C-cell line 44-2; format: cell-based; details: 1 mM extracellular Ca2+
T1 sequence (P48442 20-1079): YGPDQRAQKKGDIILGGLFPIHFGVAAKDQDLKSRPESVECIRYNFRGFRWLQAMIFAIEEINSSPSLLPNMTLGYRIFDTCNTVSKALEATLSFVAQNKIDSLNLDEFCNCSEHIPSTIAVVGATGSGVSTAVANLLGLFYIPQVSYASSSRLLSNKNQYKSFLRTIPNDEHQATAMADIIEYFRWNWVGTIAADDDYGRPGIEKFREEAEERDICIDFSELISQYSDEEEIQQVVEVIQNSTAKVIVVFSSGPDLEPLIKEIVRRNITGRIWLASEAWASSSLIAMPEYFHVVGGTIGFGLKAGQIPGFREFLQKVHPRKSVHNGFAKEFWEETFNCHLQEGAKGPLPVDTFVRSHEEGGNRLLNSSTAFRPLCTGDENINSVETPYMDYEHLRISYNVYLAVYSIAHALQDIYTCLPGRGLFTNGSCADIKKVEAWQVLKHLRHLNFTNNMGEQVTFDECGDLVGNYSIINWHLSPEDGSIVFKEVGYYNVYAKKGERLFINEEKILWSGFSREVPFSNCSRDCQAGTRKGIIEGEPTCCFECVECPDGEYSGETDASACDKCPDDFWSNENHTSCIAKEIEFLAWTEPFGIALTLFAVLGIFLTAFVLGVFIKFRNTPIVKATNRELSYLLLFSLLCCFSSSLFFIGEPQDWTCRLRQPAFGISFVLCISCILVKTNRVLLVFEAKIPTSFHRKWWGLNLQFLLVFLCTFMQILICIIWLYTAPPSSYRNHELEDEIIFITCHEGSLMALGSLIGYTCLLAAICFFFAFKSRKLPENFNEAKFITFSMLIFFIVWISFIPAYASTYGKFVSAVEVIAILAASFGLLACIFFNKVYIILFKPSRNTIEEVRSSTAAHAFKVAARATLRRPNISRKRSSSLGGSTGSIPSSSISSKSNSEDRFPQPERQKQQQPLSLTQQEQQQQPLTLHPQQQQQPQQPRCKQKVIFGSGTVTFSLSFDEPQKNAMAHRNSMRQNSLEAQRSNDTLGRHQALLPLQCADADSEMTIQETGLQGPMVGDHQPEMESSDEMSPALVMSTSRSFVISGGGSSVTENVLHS
Source text: C-cells appear to express a calcium receptor that is structurally similar to that present on parathyroid cells (see Example 31). […] Thus, compounds in this structural series appear to activate the C-cell calcium receptor.

[1] = tested on: parathyroid cell calcium receptor; format: cell-based; details: for response in the absence of extracellular Ca2+: Ca2+-free / absence of extracellular Ca2+
Procedure: For example, bovine parathyroid cells loaded with fura-2 are initially suspended in buffer containing 0.5 mM CaCl2. A test substance is added to the cuvette in a small volume (5-15 μl) and changes in the fluorescence signal are measured. Cumulative increases in the concentration of the test substance are made in the cuvette until some predetermined concentration is achieved or no further changes in fluorescence are noted.
This section describes procedures used to obtain and treat parathyroid cells from calves and humans. […] Human parathyroid glands, were obtained from patients undergoing surgical removal of parathyroid tissue for primary or uremic hyperparathyroidism (uremic HPT), and were treated similarly to bovine tissue.
Glands were trimmed of excess fat and connective tissue and then minced with fine scissors into cubes approximately 2-3 mm on a side. Dissociated parathyroid cells were prepared by collagenase digestion and then purified by centrifugation in Percoll buffer. The resultant parathyroid cell preparation was essentially devoid of red blood cells, adipocytes, and capillary tissue as assessed by phase contrast microscopy and Sudan black B staining. Dissociated and purified parathyroid cells were present as small clusters containing 5 to 20 cells.
The cells were then pelleted, resuspended in the same buffer, but lacking the ester, and incubated a further 15 minutes at 37° C. The cells were subsequently washed twice with PCB containing 0.5 mM CaCl2 and 0.5% BSA and maintained at room temperature (about 20° C.). Immediately before use, the cells were diluted five-fold with prewarmed 0.5 mM CaCl2 -PCB to obtain a final BSA concentration of 0.1%. The concentration of cells in the cuvette used for fluorescence recording was 1-2×10^6 /ml.
The fluorescence of indicator-loaded cells was measured at 37° C. in a spectrofluorimeter (Biomedical Instrumentation Group, University of Pennsylvania, Philadelphia, Pa.) equipped with a thermostated cuvette holder and magnetic stirrer using excitation and emission wavelengths of 340 and 510 nm, respectively. […] Leakage of dye is dependent on temperature and most occurs within the first 2 minutes after warming the cells in the cuvette. Dye leakage increases only very slowly thereafter. To correct the calibration for dye leakage, cells were placed in the cuvette and stirred at 37° C. for 2-3 minutes. The cell suspension was then removed, the cells pelleted, and the supernatant returned to a clean cuvette. […] This estimate was subtracted from the apparent Fmin.
Dissociated bovine parathyroid cells were purified on gradients of Percoll and cultured overnight in serum-free medium.

[2] = serum/blood ionized Ca2+ in rats; format: in vivo, rat
Procedure: Compounds shown to activate the bovine parathyroid cell calcium receptor in vitro were tested for hypocalcemic activity in vivo. Male Sprague-Dawley rats (200 g) were maintained on a low calcium diet for one week prior to receiving test substance or vehicle as control. Blood was collected from the tail vein three hours after the intraperitoneal administration of NPS 467. […] Serum total calcium, albumin and phosphate were measured by techniques well known in the art.
Rats (male, Sprague-Dawley, 250-300 g) were fed standard rat chow and fasted overnight prior to the experiment. NPS R-467 was suspended in corn oil and administered as a single oral dose through a gavage needle. Three hours later a sample of blood was taken from the tail vein and assessed for ionized Ca^2+ levels.

[3] = molecular target: T2, human parathyroid cell calcium receptor (pHuPCaR 5.2, pHuPCaR 4.0) (Homo sapiens, UniProt P41180); assay: Cl- current in Xenopus oocytes expressing cloned human parathyroid calcium receptor; format: cell-based; details: for concentrations evoking increases in Cl- current: 0.3 mM extracellular Ca2+; for response in the absence of extracellular Ca2+: no extracellular Ca2+
T2 sequence (P41180 with tags, fused parts or gaps INS536PLTFVLSVLQ/Q926R/E1011Q): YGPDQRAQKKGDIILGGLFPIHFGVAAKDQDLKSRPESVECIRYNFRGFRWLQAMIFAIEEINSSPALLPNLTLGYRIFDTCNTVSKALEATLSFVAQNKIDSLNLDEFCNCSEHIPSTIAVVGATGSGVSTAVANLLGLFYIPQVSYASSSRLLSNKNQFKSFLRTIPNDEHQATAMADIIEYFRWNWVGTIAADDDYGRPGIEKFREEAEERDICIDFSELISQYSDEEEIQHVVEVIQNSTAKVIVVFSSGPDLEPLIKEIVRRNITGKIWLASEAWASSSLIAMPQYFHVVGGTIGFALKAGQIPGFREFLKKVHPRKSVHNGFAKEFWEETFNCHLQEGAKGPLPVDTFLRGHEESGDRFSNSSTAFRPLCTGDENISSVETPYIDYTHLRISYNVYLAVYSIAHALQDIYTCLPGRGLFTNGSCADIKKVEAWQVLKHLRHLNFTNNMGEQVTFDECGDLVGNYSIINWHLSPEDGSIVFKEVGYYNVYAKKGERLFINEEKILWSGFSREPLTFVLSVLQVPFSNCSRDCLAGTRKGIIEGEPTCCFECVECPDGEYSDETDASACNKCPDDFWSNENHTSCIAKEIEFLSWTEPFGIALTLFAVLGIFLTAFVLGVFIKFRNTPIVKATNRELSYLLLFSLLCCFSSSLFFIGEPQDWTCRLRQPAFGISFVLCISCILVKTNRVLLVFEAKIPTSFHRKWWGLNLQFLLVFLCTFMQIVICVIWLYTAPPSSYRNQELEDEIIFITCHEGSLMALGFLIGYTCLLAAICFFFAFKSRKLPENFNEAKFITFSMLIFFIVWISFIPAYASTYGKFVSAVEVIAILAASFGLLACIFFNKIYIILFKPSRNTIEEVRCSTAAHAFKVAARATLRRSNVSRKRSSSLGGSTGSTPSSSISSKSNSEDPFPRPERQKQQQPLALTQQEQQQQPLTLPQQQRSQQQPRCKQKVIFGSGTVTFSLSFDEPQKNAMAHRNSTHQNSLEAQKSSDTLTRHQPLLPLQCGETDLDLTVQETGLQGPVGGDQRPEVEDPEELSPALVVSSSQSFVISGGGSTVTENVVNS
Procedure: Representative cDNA inserts for both size classes were subcloned into the plasmid vector pBluescript SK. Linearization followed by in vitro transcription using T7 RNA polymerase produced cRNA transcripts. The cRNA transcripts were injected into Xenopus oocytes (150 ng/μl RNA; 50 nl/oocyte) for functional analysis. Following incubation periods of 2-4 days, the oocytes were assayed for the presence of functional calcium receptors. Both clone types gave rise to functional calcium receptors as assessed by the stimulation of calcium-activated chloride currents upon addition of appropriate calcium receptor agonists. […] Thus, both clones encode a functional, human parathyroid cell calcium receptor.
Xenopus oocytes were injected with pHuPCaR 5.2, the 5.2 Kb cDNA encoding a parathyroid cell calcium receptor derived from a human parathyroid cell adenoma. (See Example 27.) After two to three days, Cl^- currents were measured in the oocytes using a two-electrode voltage clamp.

[4] = 10 mg/kg i.p., single dose, normal diet

In the case of `COc1cccc([C@@H](C)NCCCc2ccccc2)c1` (single isomer, unassigned) [NPS R-467], the “increase in [Ca2+]i in 44-2 C-cells” value (C-cell calcium receptor) is reported as “concentration-dependent increase”, the “increase in [Ca2+]i after 10 μM neomycin” value ([1]; 30 μM NPS R-467 after 10 μM neomycin, Ca2+-free buffer) is reported as “elicited a transient increase” and the “increase in [Ca2+]i after 100 μM neomycin” value ([1]; 30 μM NPS R-467 after 100 μM neomycin, Ca2+-free buffer) is reported as “did not cause an increase”. The “increase in [Ca2+]i (words)” value ([1]; 30 μM, Ca2+-free buffer) was “no increase; also recorded: did not cause any increase”, the “increase in [Ca2+]i (words)” value ([1]; 0.5 mM extracellular Ca2+) was “rapid and transient increase” and the “response in the absence of extracellular Ca2+” value (shortened to “response in the absence”) [1] was “abolished; also recorded: do not cause the mobilization of intracellular”. The “effect on responses to extracellular Ca2+” value ([1]; bovine parathyroid cells) was “increase the sensitivity of the calcium receptor”, the “decrease in serum ionized Ca2+ from the control level” value [2, 4] was 22% and the “time to maximal fall in serum ionized Ca2+” value [2, 4] was at most 1 h. For the same molecule, the “serum ionized Ca2+, oral” value ([2]; single oral dose in corn oil, 3 hours) was “lowers serum ionized calcium; also recorded: dose-dependent reduction in serum levels of ionized” and the “activation of oocyte-expressed human receptor” value [3] was “activated the oocyte-expressed receptor at about the same concentrations”.
With `NCCCNCCCCNCCCNCCCNCCCNC(=O)Cc1c[nH]c2ccccc12` [NPS 019] the EC50 ([1]; bovine parathyroid cells, fura-2, read-out: EC50 PARATHYROID (Table 6)) was 40 µM, the “concentrations evoking increases in Cl- current” value [3] was 3 to 30 µM and the “response in the absence” value [3] was “persisted”.
In the case of `COc1cccc([C@@H](C)NCCCc2ccccc2Cl)c1` [NPS R-568, (R)-(+)-N-[3-(2-chlorophenyl)propyl]-amethyl-α-3-methoxybenzylamine], the “increase in [Ca2+]i in 44-2 C-cells” value (C-cell calcium receptor) is reported as “concentration-dependent increase”, the “increase in [Ca2+]i / mobilization of intracellular Ca2+” value [1] is reported as “evokes increases” and the “response in the absence” value [1] is reported as “fails to evoke increases; also recorded: do not cause the mobilization of intracellular”. For the same molecule, the “effect on responses to extracellular Ca2+” value ([1]; bovine parathyroid cells) was “potentiate responses to extracellular; also recorded: increase the sensitivity of the calcium receptor”, the “plasma Ca2+” value ([2]; p.o., rats) was “rapid, dose-dependent decrease” and the “activation of oocyte-expressed human receptor” value [3] was “activated the oocyte-expressed receptor at about the same concentrations”. The “effect on extracellular Ca2+ concentration-response curve” value [3] was “shifted the concentration-response curve to the left”, the “concentrations evoking increases in Cl- current” value [3] was 3 to 30 µM and the “response in the absence” value [3] was “abolished”.
In the case of `NC[C@@H]1O[C@H](O[C@H]2[C@@H](O)[C@H](O[C@@H]3[C@@H](O)[C@H](N)C[C@H](N)[C@H]3O[C@H]3O[C@H](CN)[C@@H](O)[C@H](O)[C@H]3N)O[C@@H]2CO)[C@H](N)[C@@H](O)[C@@H]1O` [Neomycin], the “increase in [Ca2+]i / mobilization of intracellular Ca2+” value [1] is reported as “evoked rapid and transient increases”, the “increase in [Ca2+]i (words)” value ([1]; 10 μM, Ca2+-free buffer) is reported as “did not by itself cause an increase” and the “increase in [Ca2+]i (words)” value ([1]; 100 μM, absence of extracellular Ca2+) is reported as “evoked a rapid and transient increase”.
